In patent publication US20250127787A1, “METHODS FOR TREATING PERIPHERAL NEUROPATHY” (University of Pittsburgh - Of the Commonwealth System of …, priority 2021, published 2025):
Entries after “also recorded” stand apart in the source; their conditions may differ. Where two headings read alike, the source gives them in different places.

Legend:
sciatic nerve-crush rats = experiment: Von Frey sensory testing after sciatic nerve crush; format: in vivo, rat; settings: hindpaw footpad, day 2 and day 5 post injury, 8-AG 5 mg/kg/day in drinking water
Experimental: Animals. This study employed female Harlan Sprague Dawley (HSD) rats (3-4 mo; Envigo, Indianapolis, IN) and were divided into the following groups: 1) Control, 2) Sciatic nerve crush (day 0, sacrifice on day 6); 3) 8-aminoguanine (8-AG; 5 mg/kg/day in drinking water; beginning 2 weeks prior to nerve crush and continuing until sacrifice (day 6)). The dose of 8-AG is based on the work above and published experiments. Further, the water consumption/day was tracked. […] All tissues (hindpaw epidermis) were removed from isoflurane anesthetized rats and the tissue was used for various experimental approaches as described below. At the end of tissue removal, animals were sacrificed by thoracotomy.
(§1) Von Frey sensory testing. Control, sciatic nerve crush (one of the most common models of peripheral nerve injury in rodents) and 8-AG-treated sciatic nerve-crush rats were placed in an elevated chamber on a wire mesh floor and after acclimatization, calibrated von Frey microfilaments were applied to determine paw withdrawal threshold (PWT, in grams). Briefly, microfilaments (Stoelting Corp, USA) were applied with different forces perpendicularly to the plantar surface of both ipsilateral and contralateral hindpaw by increasing and decreasing stimulus intensity. […]

[1] = Pharmacokinetics of 8-aminoguanine: plasma disposition; format: in vivo; settings: single bolus 5 mg/kg through the jugular catheter; for half-life: Sprague-Dawley, rat, plasma, intravenous, 5 mg/kg
Experimental: Rats were anesthetized with urethane (Sigma-Aldrich, St. Louis, MO) at 1.2 g/kg. A continuous infusion of 0.9% sterile saline at 25 ul/min was established via a catheter inserted into the jugular vein. A second catheter to the carotid artery was established in order to collect blood samples (200 μl) which were drawn into a 1 ml syringe prefilled with 50 U heparin. Blood samples were centrifuged at 1300 g for 10 minutes and supernatant (plasma) was then quickly frozen on dry ice and stored at −80° C. until assay. Urine samples were collected by a urethral catheter, centrifuged at 416 g for 10 minutes to remove sediment, and stored as above. Baseline blood samples and urine samples were collected followed by a single bolus of 8-aminoguanine (8-AG, 5 mg/kg) administered through the jugular catheter. Blood samples were collected after 15, 30, 60, 120 and 240 minutes. Urine samples were collected at 1, 2, 4 and 6 hours.
Purines in urine were measured by mass spectrometry using multiple reaction monitoring. Blood samples were diluted 1 to 30 with water, and heavy isotope internal standards were added to each sample. Purines were separated by reversed-phase ultra-performance liquid chromatography (Waters UPLC BEH C18 column, 1.7 μm beads; 2.1×150 mm; Milford, MA) and quantified by multiple reaction monitoring using a triple quadrupole mass spectrometer (TSQ Quantum-Ultra; ThermoFisher Scientific, San Jose, CA) with a heated electrospray ionization source. The mobile phase was a linear gradient flow rate (300 uL/min) of 1% acetic acid in water (pH, 3; mobile phase A) and 100% methanol (mobile phase B), and was delivered with a Waters Acquity ultra-performance liquid chromatographic system. The gradient (A/B) settings were: from 0 to 2 minutes, 99.6%/0.4%; from 2 to 3 minutes, to 98.0%/2.0%; from 3 to 4 minutes, to 85.0%/15.0%; from 4 to 6.5 minutes, to 99.6%/0.4%. […]

PAC-CIPN rats = experiment: Von Frey sensory testing in PAC-CIPN rats; format: in vivo, rat; settings: hindpaw footpad, paclitaxel 2 mg/kg i.p., 8-AG 5 mg/kg/day in drinking water
Experimental: Animals: This study employed female Harlan Sprague Dawley (HSD) rats (3-4 mo; Envigo, Indianapolis, IN) and were divided into the following groups: 1) Control, 2) Cyclophosphamide (CYP, 75 mg/kg i.p. in saline vehicle; administered on days 0, 3 and 6 until sacrifice on day 8); 4) Paclitaxel (2 mg/kg i.p., 2 mg/kg i.p. in saline from a stock solution of 50/50 CremophorEL/ethanol); administered on days 0, 2, 4 and 6 until sacrifice on day 8; 4) 8-aminoguanine (8-AG; 5 mg/kg/day in drinking water; beginning 2 weeks prior to either CYP or PAC and continuing until sacrifice (day 8)). The dose of 8-AG was based on the experiments described above. […] All tissues (spinal cord and hindpaw epidermis) were removed from isoflurane anesthetized rats and the tissue was used for various experimental approaches as described below. At the end of tissue removal, animals were sacrificed by thoracotomy.
as §1, with “testing,” for “testing.”, “PAC” for “sciatic nerve crush (one of the most common models of peripheral nerve injury in rodents)”, “PAC” for “sciatic nerve-crush”

- half-life ([1]; read-out: half-life of first phase of decay (distribution from plasma into tissues) (converted)): 0.38 h
- half-life ([1]; read-out: half-life of second phase (elimination from the body) (converted)): 37 h
- plasma disposition ([1]; rat plasma): bi-exponential decay
SMILES: Nc1nc2[nH]c(N)nc2c(=O)[nH]1 [8-AG, 8-Aminoguanine]
- effect on injury-induced increase in sensitivity to mechanical stimuli (paw withdrawal threshold) (sciatic nerve-crush rats): restored to control values; also recorded: normalized
- effect on injury-induced increase in sensitivity to mechanical stimuli (paw withdrawal threshold) (sciatic nerve-crush rats; listed as 8-Aminoguanine): normalized
- effect on PAC-induced increase in sensitivity to mechanical stimuli (paw withdrawal threshold) (PAC-CIPN rats): restored to control values; also recorded: normalized
